Where a name gives a salt, the structure may show the parent alone.
Legend:
NLRP3 [1] = target: T1, NLRP3 (Homo sapiens, UniProt Q96P20); experiment: THP-1 cells pyroptosis assay (LPS + nigericin, resazurin readout; THP IC50); type: cell-based; design: Seed THP-1 cells (25,000 cells/well) containing 1.0 μg/ml LPS in 40 μl of RPMI medium; host or cells: THP-1 cells
Summary of the method: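 IC50 from 4-parameter fit of resazurin fluorescence (100 μM, 1-2 hrs), reflecting surviving cells after pyroptosis. LPS-primed (1 μg/ml) THP-1 cells in FBS-free RPMI got compound for 3 hrs at 37° C (top 10 μM, half-log, 8 points), then nigericin 5 μM for 1 hr.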

NLRP3 [2] = target: T1, NLRP3; experiment: Human whole blood IL1β release assay (LPS + nigericin, AlphaLisa IL-1β; HWB IC50); type: cell-based; design: Human whole blood in Li-heparin tubes was obtained from healthy donors from a volunteer donor panel; from tissue; host or cells: human whole blood from healthy donors; details: IL-1β release
Summary of the method: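 IL-1β in plasma supernatant quantified by AlphaLisa after nigericin (10 μM final, 1 h, 37 °C) triggering of human whole blood that had been preincubated 3 h with LPS (1 μg/ml) plus compound (half-log, 8 points, from 10 μM). IC50 by variable-slope four-parameter regression.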

T1 sequence (Q96P20 whole entry): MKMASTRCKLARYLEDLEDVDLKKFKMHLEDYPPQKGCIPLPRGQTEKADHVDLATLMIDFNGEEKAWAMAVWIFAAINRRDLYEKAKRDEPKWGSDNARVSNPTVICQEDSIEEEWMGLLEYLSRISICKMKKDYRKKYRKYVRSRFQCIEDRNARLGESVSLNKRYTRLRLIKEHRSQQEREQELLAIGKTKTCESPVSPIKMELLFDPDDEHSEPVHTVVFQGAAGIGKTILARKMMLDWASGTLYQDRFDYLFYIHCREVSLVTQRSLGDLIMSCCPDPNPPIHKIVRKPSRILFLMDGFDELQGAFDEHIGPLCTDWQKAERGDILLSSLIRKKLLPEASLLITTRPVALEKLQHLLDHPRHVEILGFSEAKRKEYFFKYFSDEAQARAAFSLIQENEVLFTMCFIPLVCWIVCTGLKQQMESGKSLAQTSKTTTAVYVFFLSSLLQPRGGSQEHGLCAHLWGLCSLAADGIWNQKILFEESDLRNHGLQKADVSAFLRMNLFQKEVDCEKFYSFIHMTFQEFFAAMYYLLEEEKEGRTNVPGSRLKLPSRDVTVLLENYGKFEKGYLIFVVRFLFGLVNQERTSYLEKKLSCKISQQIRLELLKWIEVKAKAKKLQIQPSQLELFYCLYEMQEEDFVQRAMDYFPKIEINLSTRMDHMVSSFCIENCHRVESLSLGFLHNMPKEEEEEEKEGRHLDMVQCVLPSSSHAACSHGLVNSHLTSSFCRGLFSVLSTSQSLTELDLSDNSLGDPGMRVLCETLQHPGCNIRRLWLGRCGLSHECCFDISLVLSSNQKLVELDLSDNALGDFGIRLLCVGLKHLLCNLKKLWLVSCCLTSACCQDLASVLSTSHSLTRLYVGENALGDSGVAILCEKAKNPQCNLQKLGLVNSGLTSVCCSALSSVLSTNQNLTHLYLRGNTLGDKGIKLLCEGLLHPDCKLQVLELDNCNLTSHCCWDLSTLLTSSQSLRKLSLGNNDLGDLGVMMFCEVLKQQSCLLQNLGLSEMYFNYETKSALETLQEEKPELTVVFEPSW

Row | Structure (SMILES) | IC50 (NLRP3 [1]) | IC50 (NLRP3 [2])
1 | COc1cc(-c2ccc3c(c2NC(=O)NS(=O)(=O)CCOC(C)C)CCC3)ccn1 [Example 174, 2-Isopropoxy-N-((5-(2-methoxypyridin-4-yl)-2,3-dihydro-1H-inden-4-yl)carbamoyl)ethanesulfonamide, sodium salt] | ≤ 500 nM | ≤ 1000 nM
2 | COc1cc(-c2ccc3c(c2NC(=O)NS(=O)(=O)CCOC(C)C)CCO3)ccn1 [Example 175, 2-Isopropoxy-N-((5-(2-methoxypyridin-4-yl)-2,3-dihydrobenzofuran-4-yl)carbamoyl)ethanesulfonamide, sodium salt] | ≤ 500 nM | ≤ 500 nM
3 | CC(C)n1ccc(S(=O)(=O)NC(=O)Nc2c(-c3cccnc3)ccc3c2CCCC3)n1 [Example 179, 1-Isopropyl-N-((2-(pyridin-3-yl)-5,6,7,8-tetrahydronaphthalen-1-yl)carbamoyl)-1H-pyrazole-3-sulfonamide] | ≤ 5000 nM | ≤ 5000 nM
4 | COc1cc(-c2ccc3c(c2NC(=O)NS(=O)(=O)c2ccn(C4CCOC4)n2)CCC3)ccn1 (stereo not shown) [Example 187, N-((5-(2-Methoxypyridin-4-yl)-2,3-dihydro-1H-inden-4-yl)carbamoyl)-1-(tetrahydrofuran-3-yl)-1H-pyrazole-3-sulfonamide] | ≤ 500 nM | ≤ 500 nM
5 | COc1cc(-c2ccc3c(c2NC(=O)NS(=O)(=O)c2cc(C4(OC)COC4)n(C)n2)CCC3)ccn1 [Example 188, 5-(3-Methoxyoxetan-3-yl)-N-((5-(2-methoxypyridin-4-yl)-2,3-dihydro-1H-inden-4-yl)carbamoyl)-1-methyl-1H-pyrazole-3-sulfonamide] | ≤ 500 nM | ≤ 500 nM
6 | COc1cc(-c2ccc3c(c2NC(=O)NS(=O)(=O)c2ccn(C(C)(C)C(=O)N(C)C)n2)CCC3)ccn1 [Example 189, 2-(3-(N-((5-(2-Methoxypyridin-4-yl)-2,3-dihydro-1H-inden-4-yl)carbamoyl)sulfamoyl)-1H-pyrazol-1-yl)-N,N,2-trimethylpropanamide] | ≤ 500 nM | ≤ 500 nM
7 | CNCc1cc(S(=O)(=O)NC(=O)Nc2c(-c3ccnc(OC)c3)ccc3c2CCC3)nn1C1CC1 [Example 190, 1-Cyclopropyl-N-((5-(2-methoxypyridin-4-yl)-2,3-dihydro-1H-inden-4-yl)carbamoyl)-5-((methylamino)methyl)-1H-pyrazole-3-sulfonamide, sodium salt] | ≤ 500 nM | ≤ 500 nM
8 | COc1cc(-c2ccc3c(c2NC(=O)NS(=O)(=O)c2cc(C4CCCN4C)n(C(C)C)n2)CCC3)ccn1 (stereo not shown) [Example 191, 1-Isopropyl-N-((5-(2-methoxypyridin-4-yl)-2,3-dihydro-1H-inden-4-yl)carbamoyl)-5-(1-methylpyrrolidin-2-yl)-1H-pyrazole-3-sulfonamide, sodium salt] | ≤ 500 nM | ≤ 1000 nM
9 | CCC(c1cc(S(=O)(=O)NC(=O)Nc2c(-c3ccnc(OC)c3)ccc3c2CCC3)nn1C(C)C)N(C)C (stereo not shown) [Example 192, 5-(1-(Dimethylamino)propyl)-1-isopropyl-N-((5-(2-methoxypyridin-4-yl)-2,3-dihydro-1H-inden-4-yl)carbamoyl)-1H-pyrazole-3-sulfonamide] | ≤ 500 nM | ≤ 500 nM
10 | COc1cc(-c2ccc3c(c2NC(=O)NS(=O)(=O)c2cc(CN(C)C)n(C(C)C)n2)CCC3)ccn1 [Example 193, 5-((Dimethylamino)methyl)-1-isopropyl-N-((5-(2-methoxypyridin-4-yl)-2,3-dihydro-1H-inden-4-yl)carbamoyl)-1H-pyrazole-3-sulfonamide] | ≤ 500 nM | ≤ 500 nM
11 | CC(C)(C#N)n1ccc(S(=O)(=O)NC(=O)Nc2c(-c3ccnc(OC(F)F)c3)ccc3c2CCO3)n1 [Example 195, 1-(2-Cyanopropan-2-yl)-N-((5-(2-(difluoromethoxy)pyridin-4-yl)-2,3-dihydrobenzofuran-4-yl)carbamoyl)-1H-pyrazole-3-sulfonamide] | ≤ 500 nM | ≤ 500 nM

Results, then the compound that gave them:

Row | IC50 (NLRP3 [1]) | IC50 (NLRP3 [2]) | Structure (SMILES)
12 | ≤ 500 nM | ≤ 500 nM | COc1cc(-c2ccc3c(c2NC(=O)NS(=O)(=O)c2cc(C(=O)N(C)C)n(C)n2)CCC3)ccn1 [Example 169, 3-(N-((5-(2-Methoxypyridin-4-yl)-2,3-dihydro-1H-inden-4-yl)carbamoyl)sulfamoyl)-N,N,1-trimethyl-1H-pyrazole-5-carboxamide, sodium salt]
13 | ≤ 500 nM | ≤ 1000 nM | COc1cc(-c2cc(F)c3c(c2NC(=O)NS(=O)(=O)c2ccn(C4CC4)n2)CCC3)ccn1 [Example 170, 1-Cyclopropyl-N-((7-fluoro-5-(2-methoxypyridin-4-yl)-2,3-dihydro-1H-inden-4-yl)carbamoyl)-1H-pyrazole-3-sulfonamide, sodium salt]
14 | ≤ 500 nM | ≤ 5000 nM | COc1cc(-c2cc(C3CC3)c3c(c2NC(=O)NS(=O)(=O)c2ccn(C4CC4)n2)CCC3)ccn1 [Example 171, 1-Cyclopropyl-N-((7-cyclopropyl-5-(2-methoxypyridin-4-yl)-2,3-dihydro-1H-inden-4-yl)carbamoyl)-1H-pyrazole-3-sulfonamide, sodium salt]
15 | ≤ 500 nM | ≤ 1000 nM | COc1cc(-c2cc(F)c3c(c2NC(=O)NS(=O)(=O)c2ccn(C4CCC4)n2)CCC3)ccn1 [Example 172, 1-Cyclobutyl-N-((7-fluoro-5-(2-methoxypyridin-4-yl)-2,3-dihydro-1H-inden-4-yl)carbamoyl)-1H-pyrazole-3-sulfonamide, sodium salt]
16 | ≤ 500 nM | ≤ 500 nM | COc1cc(-c2cc(F)c3c(c2NC(=O)NS(=O)(=O)c2ccn(C(C)(C)CN4CCC4)n2)CCC3)ccn1 [Example 173, 1-(1-(Azetidin-1-yl)-2-methylpropan-2-yl)-N-((7-fluoro-5-(2-methoxypyridin-4-yl)-2,3-dihydro-1H-inden-4-yl)carbamoyl)-1H-pyrazole-3-sulfonamide, sodium salt]
17 | ≤ 500 nM | ≤ 500 nM | COc1cc(-c2ccc3c(c2NC(=O)NS(=O)(=O)c2ccc(CN(C)C)nc2)CCC3)ccn1 [Example 176, 6-((Dimethylamino)methyl)-N-((5-(2-methoxypyridin-4-yl)-2,3-dihydro-1H-inden-4-yl)carbamoyl)pyridine-3-sulfonamide]
18 | ≤ 500 nM | ≤ 1000 nM | COc1cc(-c2ccc3c(c2NC(=O)NS(=O)(=O)c2ccnc(CN(C)C)c2)CCC3)ccn1 [Example 177, 2-((Dimethylamino)methyl)-N-((5-(2-methoxypyridin-4-yl)-2,3-dihydro-1H-inden-4-yl)carbamoyl)pyridine-4-sulfonamide, sodium salt]
19 | ≤ 500 nM | ≤ 5000 nM | COc1cc(-c2ccc3c(c2NC(=O)NS(=O)(=O)c2ccnc(C(C)C)c2)CCC3)ccn1 [Example 178, 2-Isopropyl-N-((5-(2-methoxypyridin-4-yl)-2,3-dihydro-1H-inden-4-yl)carbamoyl)pyridine-4-sulfonamide, sodium salt]
20 | ≤ 500 nM | ≤ 500 nM | COc1cc(-c2ccc3c(c2NC(=O)NS(=O)(=O)c2ccn(C(C)(C)CN4CC(OC)C4)n2)CCC3)ccn1 [Example 180, 1-(1-(3-Methoxyazetidin-1-yl)-2-methylpropan-2-yl)-N-((5-(2-methoxypyridin-4-yl)-2,3-dihydro-1H-inden-4-yl)carbamoyl)-1H-pyrazole-3-sulfonamide]
21 | ≤ 500 nM | ≤ 500 nM | N#Cc1cc(-c2ccc3c(c2NC(=O)NS(=O)(=O)c2ccn(C4CCOC4)n2)CCC3)ccn1 (stereo not shown) [Example 181, N-((5-(2-Cyanopyridin-4-yl)-2,3-dihydro-1H-inden-4-yl)carbamoyl)-1-(tetrahydrofuran-3-yl)-1H-pyrazole-3-sulfonamide, sodium salt]
22 | ≤ 500 nM | ≤ 500 nM | C[C@@H](O)Cn1ccc(S(=O)(=O)NC(=O)Nc2c(-c3ccnc(C#N)c3)ccc3c2CCC3)n1 [Example 182, (R)-N-((5-(2-Cyanopyridin-4-yl)-2,3-dihydro-1H-inden-4-yl)carbamoyl)-1-(2-hydroxypropyl)-1H-pyrazole-3-sulfonamide, sodium salt]
23 | ≤ 500 nM | ≤ 500 nM | CC(C)(O)Cn1ccc(S(=O)(=O)NC(=O)Nc2c(-c3ccnc(C#N)c3)ccc3c2CCC3)n1 [Example 183, N-((5-(2-Cyanopyridin-4-yl)-2,3-dihydro-1H-inden-4-yl)carbamoyl)-1-(2-hydroxy-2-methylpropyl)-1H-pyrazole-3-sulfonamide, sodium salt]
24 | ≤ 500 nM | ≤ 500 nM | COc1cc(-c2ccc3c(c2NC(=O)NS(=O)(=O)c2ccn(C[C@@H](C)O)n2)CCC3)ccn1 [Example 184, (R)-1-(2-Hydroxypropyl)-N-((5-(2-methoxypyridin-4-yl)-2,3-dihydro-1H-inden-4-yl)carbamoyl)-1H-pyrazole-3-sulfonamide]
25 | ≤ 500 nM | ≤ 500 nM | COc1cc(-c2ccc3c(c2NC(=O)NS(=O)(=O)c2ccn(CC(C)(C)OC)n2)CCC3)ccn1 [Example 185, 1-(2-Methoxy-2-methylpropyl)-N-((5-(2-methoxypyridin-4-yl)-2,3-dihydro-1H-inden-4-yl)carbamoyl)-1H-pyrazole-3-sulfonamide]
26 | ≤ 500 nM | ≤ 500 nM | COc1cc(-c2ccc3c(c2NC(=O)NS(=O)(=O)c2ccn(CC(C)(C)O)n2)CCC3)ccn1 [Example 186, 1-(2-Hydroxy-2-methylpropyl)-N-((5-(2-methoxypyridin-4-yl)-2,3-dihydro-1H-inden-4-yl)carbamoyl)-1H-pyrazole-3-sulfonamide]

— patent publication US20200361895A1, “NOVEL SULFONAMIDE CARBOXAMIDE COMPOUNDS” (Inflazome Limited, priority 2017, published 2020)
